In ChEMBL document CHEMBL5634129, “Design, synthesis, and structure-activity relationships of a novel class of quinazoline derivatives as coronavirus inhibitors” (Eur J Med Chem, 2023):
Calls of active or inactive are those of the source. The calls are words filed in the database; no cut-off is given here.

Columns and labels:
Human coronavirus OC43 [1] = experiment: Antiviral activity against HCoV-OC43 infected in human H460 cells assessed as decrease in viral nucleocapsid protein level by Hoechst 33342 staining based analysis; assay type: functional, organism-based; conditions: NCI-H460, dose 0.1-10 µM
Human coronavirus OC43 [2] = experiment: Antiviral activity against HCoV-OC43 infected in human H460 cells assessed as decrease in viral nucleocapsid protein mRNA level by qRT-PCR analysis; assay type: functional, organism-based; conditions: NCI-H460, dose 0.1-10 µM
Human coronavirus OC43 [3] = experiment: Antiviral activity against HCoV-OC43 infected in human NCI-H460 cells treated for 72 hrs by CPE inhibition assay; assay type: functional, organism-based; conditions: Betacoronavirus 1, NCI-H460, 72 h
[4] = Selectivity index, ratio of TC50 for human NCI-H460 cells infected with HCoV-OC43 to EC50 for HCoV-OC43 infected in human NCI-H460 cells; assay type: toxicity, cell-based; conditions: read-out: Selectivity Index
[5] = Cytotoxicity in human NCI-H460 cells infected with HCoV-OC43 treated for 72 hrs by CPE inhibition assay; assay type: toxicity, cell-based; conditions: read-out: TC50
Human coronavirus OC43 [6] = experiment: Antiviral activity against HCoV-OC43 infected in human H460 cells assessed as decrease in viral nucleocapsid protein level at 10 uM by Hoechst 33342 staining based analysis relative to control; assay type: functional, NCI-H460; design: scale not given: the % may be the effect or the level left
Human coronavirus OC43 [7] = experiment: Antiviral activity against HCoV-OC43 infected in human H460 cells assessed as viral inhibition at early stage at 500 nM measured upto 12 hrs by Hoechst 33342 staining based analysis; assay type: functional, organism-based; conditions: NCI-H460
Human coronavirus OC43 [8] = experiment: Antiviral activity against HCoV-OC43 infected in human H460 cells assessed as decrease in viral nucleocapsid protein level at 2 uM by Hoechst 33342 staining based analysis; assay type: functional, organism-based; conditions: NCI-H460
Human coronavirus OC43 [9] = experiment: Antiviral activity against HCoV-OC43 infected in human H460 cells assessed as viral inhibition at early stage at 10 uM measured upto 12 hrs by Hoechst 33342 staining based analysis; assay type: functional, organism-based; conditions: NCI-H460

For `CCOc1ccc2nc(NCCN3CCOCC3)nc(Nc3cc(C(F)(F)F)cc(C(F)(F)F)c3)c2c1`, which Activity (Human coronavirus OC43 [1]) is on record?
The Activity was “Dose-Dependent Effect”.

What about the Activity (Human coronavirus OC43 [2]) of the same molecule?
The Activity was “Dose-Dependent Effect”.

And the EC50 (Human coronavirus OC43 [3])?
The EC50 was 0.12 µM.

What about the selectivity ratio [4] of the same molecule?
The selectivity ratio was 48.1.

What about the CC50 at 72 h [5] of the same molecule?
Its CC50 at 72 h is 5.77 µM.

And the Activity (Human coronavirus OC43 [6])?
The Activity was 100%.

For `CCC(CC)COC(=O)[C@H](C)N[P@](=O)(OC[C@H]1O[C@@](C#N)(c2ccc3c(N)ncnn23)[C@H](O)[C@@H]1O)Oc1ccccc1` [REMDESIVIR], which inhibition (Human coronavirus OC43 [7]) is on record?
The inhibition was “Active”.

And the EC50 (Human coronavirus OC43 [3])?
The EC50 was 0.14 µM.

What about the selectivity ratio [4] of the same molecule?
Its selectivity ratio is > 143.

What about the CC50 at 72 h [5] of the same molecule?
Its CC50 at 72 h is > 20 µM.

And the Activity (Human coronavirus OC43 [8])?
The Activity was “Active”.

For `CCOc1ccc2nc(NCC3CCCO3)nc(Nc3cc(C(F)(F)F)cc(C(F)(F)F)c3)c2c1` (stereo unspecified), which Activity (Human coronavirus OC43 [1]) is on record?
The Activity was “Dose-Dependent Effect”.

And the Activity (Human coronavirus OC43 [2])?
Its Activity is “Dose-Dependent Effect”.

And the EC50 (Human coronavirus OC43 [3])?
Its EC50 is 0.09 µM.

And the selectivity ratio [4]?
The selectivity ratio was 1070.

What about the CC50 at 72 h [5] of the same molecule?
Its CC50 at 72 h is 96.2 µM.

What about the Activity (Human coronavirus OC43 [6]) of the same molecule?
The Activity was 100%.

What about the inhibition (Human coronavirus OC43 [9]) of the same molecule?
The inhibition was “Active”.

For `CCOc1ccc2nc(NCCOC)nc(Nc3cc(C(F)(F)F)cc(C(F)(F)F)c3)c2c1`, which Activity (Human coronavirus OC43 [1]) is on record?
Its Activity is “Dose-Dependent Effect”.

And the Activity (Human coronavirus OC43 [2])?
Its Activity is “Dose-Dependent Effect”.

And the EC50 (Human coronavirus OC43 [3])?
The EC50 was 0.1 µM.

What about the selectivity ratio [4] of the same molecule?
Its selectivity ratio is 57.7.

What about the CC50 at 72 h [5] of the same molecule?
The CC50 at 72 h was 5.77 µM.

And the Activity (Human coronavirus OC43 [6])?
The Activity was 100%.

Which EC50 (Human coronavirus OC43 [3]) does the source give for `COc1ccc2ncnc(Nc3ccc(F)c(Cl)c3)c2c1` here?
The EC50 was 3.56 µM.

What about the selectivity ratio [4] of the same molecule?
The selectivity ratio was 3.6.

What about the CC50 at 72 h [5] of the same molecule?
Its CC50 at 72 h is 12.8 µM.

Which EC50 (Human coronavirus OC43 [3]) does the source give for `CCOc1ccc2nc(NCc3cccs3)nc(Nc3cc(C(F)(F)F)cc(C(F)(F)F)c3)c2c1` here?
Its EC50 is 2.97 µM.

And the selectivity ratio [4]?
The selectivity ratio was 3.6.

What about the CC50 at 72 h [5] of the same molecule?
Its CC50 at 72 h is 10.7 µM.

Which results are given for `COc1ccc2ncnc(Nc3ccc(F)c(C(F)(F)F)c3)c2c1`?
EC50 (Human coronavirus OC43 [3]): 1.43 µM; selectivity ratio [4]: 18.7; CC50 at 72 h [5]: 26.7 µM

Which results are given for `O=[N+]([O-])c1cccc(Nc2ncnc3ccc(Cl)cc23)c1`?
EC50 (Human coronavirus OC43 [3]): 4.28 µM; selectivity ratio [4]: 12.1; CC50 at 72 h [5]: 51.7 µM

Which results are given for `CCOc1ccc2nc(NCc3ccco3)nc(Nc3cc(C(F)(F)F)cc(C(F)(F)F)c3)c2c1`?
EC50 (Human coronavirus OC43 [3]): 1.19 µM; selectivity ratio [4]: 9; CC50 at 72 h [5]: 10.7 µM

For `COC(=O)c1cc(Cl)cc(Nc2ncnc3ccc(OC)cc23)c1`, which EC50 (Human coronavirus OC43 [3]) is on record?
Its EC50 is 1.43 µM.

And the selectivity ratio [4]?
Its selectivity ratio is 90.4.

What about the CC50 at 72 h [5] of the same molecule?
The CC50 at 72 h was 129 µM.

Which EC50 (Human coronavirus OC43 [3]) does the source give for `FC(F)(F)c1cc(Nc2ncnc3cnc(Cl)cc23)cc(C(F)(F)F)c1` here?
The EC50 was 0.15 µM.

What about the selectivity ratio [4] of the same molecule?
The selectivity ratio was 11.4.

And the CC50 at 72 h [5]?
The CC50 at 72 h was 1.71 µM.

With `CCCNc1nc(Nc2cc(C(F)(F)F)cc(C(F)(F)F)c2)c2cc(OCC)ccc2n1` as the molecule, how does the EC50 (Human coronavirus OC43 [3]) read?
Its EC50 is 0.69 µM.

What about the selectivity ratio [4] of the same molecule?
Its selectivity ratio is 9.

And the CC50 at 72 h [5]?
The CC50 at 72 h was 6.17 µM.

What does the source list for `COc1ccc2ncnc(Nc3cc(Cl)cc(C#N)c3)c2c1`?
EC50 (Human coronavirus OC43 [3]): 9.98 µM; selectivity ratio [4]: 24.1; CC50 at 72 h [5]: 240 µM
